The inhibition is the drop in the measured response relative to a control, in per cent.

SMILES strings stand for the structures.

These results are taken from PMC5587527, “A fragment-based approach leading to the discovery of a novel binding site and the selective CK2 inhibitor CAM4066” (Bioorganic & Medicinal Chemistry, 2017).

T1 sequence (P68400 whole entry): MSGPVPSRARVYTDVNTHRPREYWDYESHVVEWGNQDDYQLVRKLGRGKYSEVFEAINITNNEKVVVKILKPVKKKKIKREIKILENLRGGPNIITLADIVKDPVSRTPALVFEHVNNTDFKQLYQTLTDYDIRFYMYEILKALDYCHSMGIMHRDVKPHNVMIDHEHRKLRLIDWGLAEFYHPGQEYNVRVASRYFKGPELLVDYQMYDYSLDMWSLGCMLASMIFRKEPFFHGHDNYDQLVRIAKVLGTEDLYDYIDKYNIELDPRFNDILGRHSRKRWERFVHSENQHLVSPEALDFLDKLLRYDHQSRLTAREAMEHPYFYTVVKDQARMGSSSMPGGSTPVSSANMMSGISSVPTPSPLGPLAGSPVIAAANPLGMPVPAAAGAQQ

The first assay concerns the target T1, CK2α (Homo sapiens, UniProt P68400).
Assay: not given
The conditions noted are these: from ITC Kd.
`COC(=O)CC(=O)NCCCNCc1ccc(-c2ccccc2)c(Cl)c1.Cl` [Compound 19] came in with a ligand efficiency of 0.23.
Same read-out and setting: as for `O=C(O)CC(=O)NCCCNCc1ccc(-c2ccccc2)c(Cl)c1` [Compound 20], the figure is 0.19.

A further assay has as its target T1, CK2α. Description: biochemical. The conditions noted are these: read-out: % Inhibition at 500 μM.
Turning to `CNCc1ccc(-c2ccccc2)c(Cl)c1` [Compound 10], the inhibition at 500 µM stood at 44 ± 12%.
Same read-out and setting: then `CCNCc1ccc(-c2ccccc2)c(Cl)c1` [Compound 11], with 23 ± 6%.
As for `CCCNCc1ccc(-c2ccccc2)c(Cl)c1` [Compound 12], the inhibition at 500 µM is 33 ± 5%.
The same measure, in the same setting: as for `OCCCNCc1ccc(-c2ccccc2)c(Cl)c1` [Compound 13], the figure is 47 ± 5%.
Regarding `NCCCCNCc1ccc(-c2ccccc2)c(Cl)c1` [Compound 14], the inhibition at 500 µM was found to be 18 ± 2%.
Still for that read-out and setting: then `CC(=O)NCCCNCc1ccc(-c2ccccc2)c(Cl)c1` [Compound 15], with 39 ± 3%; and `NC(=O)CCNCc1ccc(-c2ccccc2)c(Cl)c1` [Compound 16], with 16 ± 6%.
Same read-out and setting: then `CC(=O)NCCNCc1ccc(-c2ccccc2)c(Cl)c1` [Compound 17], with 12 ± 4%; and `CS(=O)(=O)NCCCNCc1ccc(-c2ccccc2)c(Cl)c1` [Compound 18], with 51 ± 10%; and `COC(=O)CC(=O)NCCCNCc1ccc(-c2ccccc2)c(Cl)c1.Cl` [Compound 19], with 46 ± 2%.
On the same count and under the same terms, as for `O=C(O)CC(=O)NCCCNCc1ccc(-c2ccccc2)c(Cl)c1` [Compound 20], the figure is 20 ± 4%.
